The values below come from paper PMC9214071 (Acta Pharmaceutica Sinica. B, 2022).

In data set [1] the target is T1, PAK4 (Homo sapiens, UniProt O96013). Nature of the data set: PAK4 HTRF assay. It counts as biochemical. To be noted: for Ki / LE / LLE: PAK4 Ki; for Ki: HTRF, average of two independent experiments; for LE: Ligand efficiency = (−1.4 Log Ki)/(n heavy atoms); for LLE: Ligand lipophilicity efficiency = (−Log Ki) − (cLogP).
The next data set deals with PAK1 (Homo sapiens, UniProt Q13153). Nature of the data set: PAK1 FRET-based Z'-Lyte assay. The data set is classed as biochemical.
Data set [2] has as its target T1, PAK4. To be noted: read-out: PAK4 Ki (reported); cited from earlier work.
Data set [3] can be described thus: Liver microsomal stability assay, MLM. Background: Liver microsomes are vesicles of endoplasmic reticulum, rich in cytochrome P450 enzymes.
A further data set can be described thus: in vitro. Conditions: CD-1, mouse, mouse liver microsomes, pH 7.4.
Where [4] appears, read: at least two duplicate experiments, SEM < ±20%.

Several values for one entry are separate records, joined by “and”; a condition that tells them apart may be missing. Equal entries are not always repeated. Where two headings read alike, the source gives them in different places.

T1 sequence (O96013 whole entry): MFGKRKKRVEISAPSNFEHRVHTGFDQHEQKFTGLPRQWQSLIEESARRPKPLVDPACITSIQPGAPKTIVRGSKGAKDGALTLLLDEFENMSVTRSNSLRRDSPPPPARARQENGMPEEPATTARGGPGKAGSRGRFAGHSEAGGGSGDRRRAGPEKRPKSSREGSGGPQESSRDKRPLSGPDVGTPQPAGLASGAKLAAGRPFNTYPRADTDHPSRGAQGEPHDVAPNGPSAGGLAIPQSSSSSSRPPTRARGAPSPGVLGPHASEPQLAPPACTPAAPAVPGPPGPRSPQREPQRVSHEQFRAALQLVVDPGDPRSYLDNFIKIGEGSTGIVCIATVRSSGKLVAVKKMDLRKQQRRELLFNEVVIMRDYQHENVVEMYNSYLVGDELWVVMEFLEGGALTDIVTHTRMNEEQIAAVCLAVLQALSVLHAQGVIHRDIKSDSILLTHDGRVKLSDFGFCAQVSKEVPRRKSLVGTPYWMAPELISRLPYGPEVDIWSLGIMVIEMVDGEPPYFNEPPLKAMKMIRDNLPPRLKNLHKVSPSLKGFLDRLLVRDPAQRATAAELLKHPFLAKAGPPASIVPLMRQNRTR
PAK1, sequence (Q13153 whole entry): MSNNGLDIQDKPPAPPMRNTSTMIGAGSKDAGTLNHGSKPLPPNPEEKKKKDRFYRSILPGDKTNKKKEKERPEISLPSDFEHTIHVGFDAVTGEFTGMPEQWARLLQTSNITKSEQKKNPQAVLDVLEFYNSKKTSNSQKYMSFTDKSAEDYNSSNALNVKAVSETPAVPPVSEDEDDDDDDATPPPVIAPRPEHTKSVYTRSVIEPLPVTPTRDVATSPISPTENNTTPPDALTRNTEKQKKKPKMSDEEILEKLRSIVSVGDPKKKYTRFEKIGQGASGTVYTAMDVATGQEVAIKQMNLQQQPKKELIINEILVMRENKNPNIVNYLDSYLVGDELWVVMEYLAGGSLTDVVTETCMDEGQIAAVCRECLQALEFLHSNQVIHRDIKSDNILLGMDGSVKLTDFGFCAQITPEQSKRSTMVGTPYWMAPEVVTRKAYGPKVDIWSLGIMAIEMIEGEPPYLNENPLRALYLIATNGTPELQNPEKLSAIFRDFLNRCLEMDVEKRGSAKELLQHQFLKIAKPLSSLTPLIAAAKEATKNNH

With `OC1(C#Cc2ccc3ccn(-c4ccnc(NCc5ccccc5)n4)c3c2)CCCCC1` [Compound 10], the inhibition constant Ki on PAK4 [1] turned out to be 623 nM.
On PAK4 [1], `OC1(C#Cc2ccc3ccn(-c4ccnc(NCc5ccccc5F)n4)c3c2)CCCCC1` [Compound 11] came in with a Ki of 223 nM.
On to `Nc1nccc(-n2ccc3ccc(C#CC4(O)CCCCC4)nc32)n1` [Compound 9], for which, at PAK4 [1], the LE came out at 0.36 and the inhibitory constant (Ki) stood at 183 nM.
For the compound `Nc1nccc(-n2ccc3ncc(C#CC4(O)CCCCC4)cc32)n1` [Compound 7], at PAK4 [1], the LE is given as 0.40 and the affinity corresponds to a Ki of 36 nM.
At PAK4 [1], `Nc1nccc(-n2cc(C(=O)Nc3ccccc3)c3ccc(C#CC4(O)CCCCC4)cc32)n1` [Compound 31] came in with a Ki of 804 nM.
With `Nc1nccc(-n2cc(C(=O)N3CCC[C@H](N)C3)c3ccc(C#CC4(O)CCCCC4)cc32)n1` [Compound 45, (S)-(3-Aminopiperidin-1-yl) (1-(2-aminopyrimidin-4-yl)-6-((1-hydroxycyclohexyl)ethynyl)-1H-indol-3-yl)methanone], at PAK4 [1], the LE is given as 0.30, the LLE was determined as 4.80 and the inhibitory constant (Ki) amounted to 25.6 nM. Further, the affinity on PAK1 (setting [4]) corresponds to a Ki of 2370 nM.
`Nc1nccc(-n2cc(C(=O)N3CCOCC3)c3ccc(C#CC4(O)CCCCC4)cc32)n1` [Compound 37] had a Ki at PAK4 [1] of 119 nM.
Turning to `COCCNc1nc2ccc(C#CC3(O)CCCCC3)cc2n1-c1ccnc(N)n1` [GNE-2861, reference compound], the inhibition constant Ki was 3 nM at PAK4 [2]; 35 nM and 35.3 nM on PAK4 [1]; 3130 nM on PAK1 (setting [4]).
Regarding `Nc1nccc(-n2ccc3cnc(C#CC4(O)CCCCC4)cc32)n1` [Compound 8], on PAK4 [1], the LE amounted to 0.42 and the affinity corresponds to a Ki of 13 nM.
In turn, `CNC(=O)c1cn(-c2ccnc(N)n2)c2cc(C#CC3(O)CCCCC3)ccc12` [Compound 40] yielded a Ki on PAK4 [1] of 44 nM.
Turning to `Nc1nccc(-n2cc(C(=O)N3CC[C@H](N)C3)c3ccc(C#CC4(O)CCCCC4)cc32)n1` [Compound 53], at PAK4 [1], the LE came to 0.31; the LLE is recorded as 4.47; the affinity, expressed as Ki, was 22.7 nM. Further, affinity at PAK1 (setting [4]) was put at a Ki of 2870 nM.
In turn, `Nc1nccc(-n2cc(C(=O)Nc3nccs3)c3ccc(C#CC4(O)CCCCC4)cc32)n1` [Compound 32] came in with an inhibitory constant (Ki) at PAK4 [1] of 243 nM.
At PAK4 [1], `Nc1nccc(-n2ccc3cc(F)c(C#CC4(O)CCCCC4)cc32)n1` [Compound 5a] registered an LE of 0.38 and a Ki of 82 nM.
Turning to `OC1(C#Cc2ccc3ccn(-c4ccnc(Nc5ccccc5F)n4)c3c2)CCCCC1` [Compound 20], the Ki at PAK4 [1] was found to be 396 nM.
For the compound `Nc1cc(-n2ccc3ccc(C#CC4(O)CCCCC4)cc32)ncn1` [Compound 5c], at PAK4 [1], the LE was 0.36 and the Ki worked out at 229 nM.
On the same counts, the results for `Nc1nccc(-n2ccc3ccc(C#CC4(O)CCCCC4)cc32)n1` [Compound 5] are 0.39 and 66 nM.
As to `Nc1nccc(-n2cc(C(=O)N[C@H]3CCNC3)c3ccc(C#CC4(O)CCCCC4)cc32)n1` [Compound 50], at PAK4 [1], the LE was determined as 0.31, the LLE was found to be 4.40 and the Ki amounted to 27.2 nM.
As to `COc1ccc(Nc2nccc(-n3ccc4ccc(C#CC5(O)CCCCC5)cc43)n2)cc1` [Compound 24], affinity at PAK4 [1] was put at a Ki of 298 nM.
The same measure, in the same setting: for `Cc1cccc(Nc2nccc(-n3ccc4ccc(C#CC5(O)CCCCC5)cc43)n2)c1` [Compound 19] the value was 212 nM.
`Nc1ccn(C(=O)c2cn(-c3ccnc(N)n3)c3cc(C#CC4(O)CCCCC4)ccc23)n1` [Compound 34] showed a Ki on PAK4 [1] of 94 nM.
With `OC1(C#Cc2ccc3ccn(-c4ccnc(Nc5ccccc5C(F)(F)F)n4)c3c2)CCCCC1` [Compound 21], the Ki on PAK4 [1] came out at 173 nM.
`Nc1nccc(-n2cc(C(=O)N[C@@H]3CCNC3)c3ccc(C#CC4(O)CCCCC4)cc32)n1` [Compound 52]: at PAK4 [1], the LE was determined as 0.31, the LLE stood at 5.48 and the inhibitory constant (Ki) worked out at 30.9 nM.
Regarding `OC1(C#Cc2ccc3ccn(-c4ccnc(NCc5ccc(F)cc5)n4)c3c2)CCCCC1` [Compound 13], affinity at PAK4 [1] was put at a Ki of 291 nM.
The same measure, in the same setting: for `Cc1ccccc1Nc1nccc(-n2ccc3ccc(C#CC4(O)CCCCC4)cc32)n1` [Compound 22] the value was 709 nM.
As for `Nc1nccc(-n2cc(C(=O)N[C@@H]3CCCNC3)c3ccc(C#CC4(O)CCCCC4)cc32)n1` [Compound 48], on PAK4 [1], the LE worked out at 0.33; the LLE was determined as 5.42; the affinity, expressed as Ki, was 5.6 nM. On PAK1 (setting [4]), this compound registered an inhibition constant (Ki) of 7130 nM.
`OC1(C#Cc2ccc3ccn(-c4ccnc(NCc5ccccc5Cl)n4)c3c2)CCCCC1` [Compound 12] registered a Ki on PAK4 [1] of 355 nM.
On PAK4 [1], `CN(C)C(=O)c1cn(-c2ccnc(N)n2)c2cc(C#CC3(O)CCCCC3)ccc12` [Compound 39] yielded a Ki of 82 nM.
As to `NC(=O)c1cn(-c2ccnc(N)n2)c2cc(C#CC3(O)CCCCC3)ccc12` [Compound 41], in data set [3], the liver clearance worked out at 105.5 mL/min/kg. The compound further had a half-life at 1 μmol/L in the data set “in vitro” of 23.7 min. The same compound registered an inhibitory constant (Ki) at PAK4 [1] of 14 nM.
On PAK4 [1], `Nc1nccc(-n2cc(C(=O)N3CC[C@@H](N)C3)c3ccc(C#CC4(O)CCCCC4)cc32)n1` [Compound 51] had an LE of 0.31, an LLE of 4.42 and a Ki of 25.5 nM. The compound further returned a Ki on PAK1 (setting [4]) of 6340 nM.
In turn, `CC(C)Nc1nccc(-n2ccc3ccc(C#CC4(O)CCCCC4)cc32)n1` [Compound 29] yielded a Ki at PAK4 [1] of 1110 nM.
As to `Nc1cc(-n2ccc3ccc(C#CC4(O)CCCCC4)cc32)nc(N)n1` [Compound 5b], on PAK4 [1], the LE was found to be 0.33 and the Ki turned out to be 370 nM.
On to `Nc1nccc(-n2cc(C(=O)N3CCNC(=O)C3)c3ccc(C#CC4(O)CCCCC4)cc32)n1` [Compound 56, 4-(1-(2-Aminopyrimidin-4-yl)-6-((1-hydroxycyclohexyl)ethynyl)-1H-indole-3-carbonyl)piperazin-2-one], for which, on PAK4 [1], the LE came out at 0.31, the LLE is 5.17 and affinity was put at a Ki of 18.1 nM. At PAK1 (setting [4]), this compound displayed an inhibitory constant (Ki) of 4990 nM.
On the same counts, the results for `Nc1nccc(-n2cc(C(=O)N3CCC(N)CC3)c3ccc(C#CC4(O)CCCCC4)cc32)n1` [Compound 43] are 0.29, 4.16, 42.6 nM and 1610 nM.
The like results for `Nc1nccc(-n2cc(C(=O)NC3CCNCC3)c3ccc(C#CC4(O)CCCCC4)cc32)n1` [Compound 44] were, in that order, 0.32, 5.28, 8.3 nM and 4240 nM.
On PAK4 [1], `Nc1nccc(-n2cc(C(=O)N3CCC[C@@H](N)C3)c3ccc(C#CC4(O)CCCCC4)cc32)n1` [Compound 47] had a half-maximal inhibitory concentration (IC50) of 6.3 nM, an LE of 0.34, an LLE of 5.65 and a Ki of 3.4 nM. In addition, the Ki at PAK1 was found to be 6990 nM. For the same compound, the Ki on PAK1 (setting [4]) was found to be 6990 nM.
`OC1(C#Cc2ccc3ccn(-c4ccnc(Nc5ccc(F)c(Cl)c5)n4)c3c2)CCCCC1` [Compound 25] yielded a Ki on PAK4 [1] of 189 nM.
On the same count and under the same terms, with `COCCNc1nccc(-n2ccc3ccc(C#CC4(O)CCCCC4)cc32)n1` [Compound 28] the figure was 680 nM.
Same read-out and setting: for `OC1(C#Cc2ccc3ccn(-c4ccnc(NCc5cccs5)n4)c3c2)CCCCC1` [Compound 14] the value was 7450 nM.
Consider `Nc1nccc(-n2cc(C(=O)N3CCC[C@@H](O)C3)c3ccc(C#CC4(O)CCCCC4)cc32)n1` [Compound 49], for which, on PAK4 [1], the LE was found to be 0.27, the LLE is 4.12 and the Ki amounted to 207 nM. The “factor of reduced activity relative to 47” value at PAK4 [1] (PAK4, relative to 47) is recorded as 60.
As to `Nc1nccc(-n2cc(C(=O)NCc3ccccc3)c3ccc(C#CC4(O)CCCCC4)cc32)n1` [Compound 30], the Ki at PAK4 [1] was determined as 593 nM.
At PAK4 [1], `Cc1cnc(N)nc1-n1ccc2ccc(C#CC3(O)CCCCC3)cc21` [Compound 5d] had an LE of 0.35 and a Ki of 182 nM.
Take `Nc1nccc(-n2cc(C(=O)Nc3cc[nH]n3)c3ccc(C#CC4(O)CCCCC4)cc32)n1` [Compound 33]: affinity on PAK4 [1] was put at a Ki of 239 nM.
With `OC1(C#Cc2ccc3ccn(-c4ccnc(Nc5ccccc5)n4)c3c2)CCCCC1` [Compound 15], affinity on PAK4 [1] was put at a Ki of 217 nM.
`CN1CCN(C(=O)c2cn(-c3ccnc(N)n3)c3cc(C#CC4(O)CCCCC4)ccc23)CC1` [Compound 38]: at PAK4 [1], the affinity corresponds to a Ki of 38 nM.
As for `OC1(C#Cc2ccc3ccn(-c4ccnc(Nc5cccc(Cl)c5)n4)c3c2)CCCCC1` [Compound 16], the Ki at PAK4 [1] came out at 105 nM.
Take `Nc1nccc(-n2ncc3ccc(C#CC4(O)CCCCC4)cc32)n1` [Compound 6]: on PAK4 [1], the LE was 0.40 and the Ki is 40 nM.
At PAK4 [1], `NS(=O)(=O)c1cccc(Nc2nccc(-n3ccc4ccc(C#CC5(O)CCCCC5)cc43)n2)c1` [Compound 26] showed a Ki of 83 nM.
For the compound `C[C@@H]1CN(C(=O)c2cn(-c3ccnc(N)n3)c3cc(C#CC4(O)CCCCC4)ccc23)CCN1` [Compound 54], on PAK4 [1], the LE turned out to be 0.27, the LLE is reported as 3.53 and the Ki is 148 nM. In addition, the “fold less potency than 55 against PAK4” value at PAK4 [1] (relative to 55) was “approximately 14 fold”.
For the compound `N#Cc1cccc(Nc2nccc(-n3ccc4ccc(C#CC5(O)CCCCC5)cc43)n2)c1` [Compound 18], at PAK4 [1], affinity was put at a Ki of 242 nM.
On to `Nc1nccc(-n2cc(C(=O)Nc3cc(O)[nH]n3)c3ccc(C#CC4(O)CCCCC4)cc32)n1` [Compound 35], for which the Ki at PAK4 [1] worked out at 376 nM.
The compound `O=[N+]([O-])c1cccc(Nc2nccc(-n3ccc4ccc(C#CC5(O)CCCCC5)cc43)n2)c1` [Compound 17] had a Ki at PAK4 [1] of 157 nM.

In general, Ki refers to the equilibrium dissociation constant of an inhibitor or competing ligand from its target. As usually defined, the half-life is the time needed for the level to fall by half in the phase considered. One may read the IC50 as the concentration that inhibits the measured activity by half. A higher IC50 goes with lower potency.
